# Patent US8053413B2, “Methods for treating sleep disorders by cholecystokinin (CCK) receptor B antagonists” (The Board of Trustees of the University of Illinois, priority 2005, dated 2011)
# How the values were obtained:
# [1] = system: sleep apnea (OSAS, central apnea); conditions: cited from earlier work; for effect in individuals with obstructive sleep apnea (OSAS) / effect in individuals with central apnea: patients; for effect in individuals with central apnea: primarily central apneas
# [2] = system: spontaneous sleep apnea in the rat; assay: Spontaneous sleep apnea in the rat: plethysmograph, EEG and EMG recording after i.p. injection; type: in vivo, Sprague-Dawley rats; conditions: for SP apnea index, % of placebo value: spontaneous (SP) apneas, p<0.03; for efficacy against sleep apnea (rate of apneas per hour of NREM and REM sleep): 6 hours polygraphic recording, i.p.
# Procedure: Adult, male Sprague-Dawley rats (Sasco-King, Wilmington, Mass.), usually 8 per test group with an average weight of 300 grams, are maintained on a 12-hour light/12-hour dark cycle for one week. The animals are housed in individual cages and given ad libitum access to food and water. Following the one week of acclimatization, animals are subjected to the following surgical procedures.
# Acclimatized animals are anesthetized using a mixture of ketamine (80 mg/kg) and xylazine (5 mg/kg) at a volume of 1 ml/kg body weight for the implantation of cortical electrodes for electroencephalogram (EEG) recording and neck muscle electrodes for electromyogram (EMG) recording. The surface of the skull is exposed surgically and cleaned with a 20% solution of hydrogen peroxide followed by a solution of 95% isopropyl alcohol. A dental preparation of sodium fluoride (FLURA-GEL; Saslow Dental, Mt. Prospect, Ill.) is subsequently applied to harden the skull above the parietal cortex and allowed to remain in place for 5 minutes. The fluoride mixture is then removed from the skull above the parietal cortex. The EEG electrodes consisting of four stainless steel machine screws, having leads attached thereto, are threaded into the skull to rest on the dura over the parietal cortex. A thin layer of JUSTI resin cement (Saslow Dental, Mt. Prospect, Ill.) is applied to cover the screw heads (of screws implanted in the skull) and surrounding skull to further promote the adhesion of the implant. EMG electrodes consisting of two ball-shaped wires are inserted into the bilateral neck musculature. All leads (i.e., EEG and EMG leads) are soldered to a miniature connector (39F1401; Newark Electronics, Schaumburg, Ill.). The entire assembly is subsequently fixed to the skull with dental cement.
# Physiological parameters from each animal prepared as described herein are recorded on two to five occasions in random order, with recordings for an individual animal separated by at least 3 days. Fifteen minutes prior to each recording an animal receives a systemic injection (1 mL/kg intraperitoneal bolus) of either saline (control) or an active dose of a drug treatment.
# Respiration is recorded by placing each animal, unrestrained, inside a single chamber plethysmograph (PLYUNIR/U; Buxco Electronics, Sharon, Conn.; dimension 6 inches×10 inches×6 inches) ventilated with a bias flow of fresh room air at a rate of 2 Liters/minute. A cable plugged onto the animal's connector and passed through a sealed port is used to collect the bioelectrical activity from the head implant.
# Sleep and waking states are assessed using conventional software (Benington, et al. (1994) Sleep 17:28-36) to analyze the biparietal EEG and nuchal EMG signals on 10-second epochs. The software discriminates wakefulness (W) as a high frequency low amplitude EEG with a concomitant high EMG tone, NREM sleep by increased spindle and […] activity together with decreased EMG tone, and REM sleep by a […] activity and an absence of EMG tone. Sleep efficiency is measured as the percentage of total recorded epochs staged as NREM or REM sleep.
# An accepted physiological animal model of spontaneous sleep apnea in the rat (see Radulovacki & Carley (2002) In: Sleep-Related Breathing Disorder: Experimental Models and Therapeutic Potential (Carley & Radulovacki, eds.) Marcel Dekker: New York, pp. 3-16) is used to assess the effects of test drugs. More specifically, sleep apneas, defined as cessation of respiratory effort for at least 2.5 seconds, are scored for each recording session and associated with the stage of sleep in which they occur (i.e., NREM or REM sleep). The duration requirement of 2.5 seconds represents at least two “missed” breaths, which is therefore analogous to a 10 second apnea duration requirement in humans, which also reflects two to three missed breaths. […]
# [3] = system: CCK-induced depolarization of nodose ganglion neurons; conditions: isolated nodose ganglion cells; cited from earlier work
# central apneas = conditions: rats with frequent central apneas during all sleep stages; cited from earlier work
# sleep apnea = conditions: cited from earlier work
# [4] = individuals with obstructive sleep apnea
compound,measurement,setting,value
O=C1CC2(CCCC2)CC(=O)N1CCCCN1CCN(c2ncccn2)CC1 [Buspirone],post-surgical apneustic breathing,[1]; one child,eliminate post-surgical apneustic breathing
same,patients with reduced apnea index,[1]; patients with sleep apnea syndrome,4 of 5
Cc1cc(C)c(NC(=O)C[C@H](CC(=O)O)c2cccc3ccccc23)c(C(=O)N2CCC3(CCCC3)CC2)c1 [CR2945],"SP apnea index, % of placebo value","[2]; 0.5 mg/kg i.p. in DMSO, rats",42%
same,"SP apnea index, % of placebo value","[2]; 5.0 mg/kg i.p. in DMSO, rats",31%
same,REM SP apnea index,"[2]; all four doses 0.005, 0.05, 0.5, 5.0 mg/kg i.p., p<0.04 for each",significantly reduced
same,frequency of spontaneous central apnea expression,"[2]; all sleep stages, rats, systemic injection",significantly reduced
same,apnea duration,"[2]; any dose 0.005-5.0 mg/kg i.p., p=0.7",not affected
"Cc1cccc(NC(=O)N[C@@H]2N=C(c3ccccc3)c3ccccc3N(C)C2=O)c1 [L-365,260]",efficacy against sleep apnea (rate of apneas per hour of NREM and REM sleep),[2]; rats,dose-dependent efficacy
same,potency in blocking CCK-induced depolarization of nodose ganglion neurons,[3],less potent
COc1cc(N)c(Cl)cc1C(=O)N[C@H]1CN2CCC1CC2 [R-zacopride],apnea frequency,central apneas,reduce apnea frequency
CC(=O)Nc1nnc(S(N)(=O)=O)s1 [acetazolamide],effect in individuals with obstructive sleep apnea (OSAS),[1],increase in obstructive apneas
same,effect in individuals with central apnea,[1],variable improvement
Nc1ncnc2c1ncn2[C@@H]1O[C@H](CO)[C@@H](O)[C@H]1O [adenosine],reduction of apnea in an animal model of sleep apnea,sleep apnea,somewhat effective in reducing apnea
CN1C(=O)[C@@H](NC(=O)c2cc3ccccc3[nH]2)N=C(c2ccccc2)c2ccccc21 [devazepide],efficacy against sleep apnea (rate of apneas per hour of NREM and REM sleep),[2]; rats,dose-dependent efficacy
same,potency in blocking CCK-induced depolarization of nodose ganglion neurons,[3],highly potent
CCN1CC(CCN2CCOCC2)C(c2ccccc2)(c2ccccc2)C1=O (centres unmarked) [doxapram],average arterial oxygen saturation,[1]; [4],does not alter
same,length of apneas,[1]; [4],decreasing the length of apneas
CCCCCN(CCCCC)C(=O)C(CCC(=O)O)NC(=O)c1ccc(Cl)c(Cl)c1 (centres unmarked) [lorglumide],efficacy against sleep apnea (rate of apneas per hour of NREM and REM sleep),[2]; rats,dose-dependent efficacy
CN1CCN2c3ncccc3Cc3ccccc3C2C1 (centres unmarked) [mirtazapine],apnea frequency,central apneas,reduce apnea frequency
same,reduction of apnea frequency,[1]; one study of OSAS patients,50%
C=CCN1CC[C@]23c4c5ccc(O)c4O[C@H]2C(=O)CC[C@@]3(O)[C@H]1C5 [naloxone],effect in individuals with obstructive sleep apnea (OSAS),[1],only slightly helpful
Cc1nccn1CC1CCc2c(c3ccccc3n2C)C1=O (centres unmarked) [ondansetron],apnea frequency,central apneas,reduce apnea frequency
same,effect in individuals with obstructive sleep apnea (OSAS),[1],failed to demonstrate any effect
CNCCCC1c2ccccc2C=Cc2ccccc21 [protriptyline],effect in individuals with obstructive sleep apnea (OSAS),[1],variable results
same,side effects,[1]; several small trials in individuals with OSAS,frequent and significant side effects
Cn1c(=O)c2[nH]cnc2n(C)c1=O [theophylline],effect in individuals with obstructive sleep apnea (OSAS),[1],of no use
same,effect in individuals with central apnea,[1],may benefit
CCCCCc1cc(O)c2c(c1)OC(C)(C)[C@@H]1CCC(C)=C[C@@H]21 [Δ9-tetrahydrocannibinol],reduction of apnea in an animal model of sleep apnea,sleep apnea,reduce sleep apneas
medroxyprogesterone,effect in individuals with obstructive sleep apnea (OSAS),[1],no consistent benefit
